The record followed here is US10849955B2, “Methods of treating pancreatic cancer using GPCR antagonists” (City of Hope, priority 2016, dated 2020).

Common to all, as to format: cell-based, human
Assay [1] deals with pERK1/2. The assay is described as follows: pERK1/2 localization in PANC-1 cells, confocal imaging. Particulars: 3 or 30 min, 10 nM dermorphin, 10 nM L-054,264, 100 ng/ml CXCL12. The protocol: For pERK1/2 activation studies, after 24 hours, normal pancreatic and/or PANC-1 cells were treated with 1) 10 nM dermorphin; 2) 10 nM L-054,264; 3) 10 nM dermorphin plus 10 nM L-054,264; 4) 100 ng/ml CXCL12; and 5) 10 nM dermorphin plus 100 ng/ml CXCL12 for either 3 min or 30 min as indicated. PANC-1 NS, PANC-1/β arreatin2, PANC-1/SSTR2si and PANC-1/MORsi cells were treated with 10 nM dermorphin with 10 nM L-054,264 for 3 min. Following treatment, cells were washed and fixed with 4% (w/v) paraformaldehyde and 0.2% (w/v) glutaraldehyde for 30 min and inactivated with 25 mM glycine for 10 min. Cells were then washed in PBS and subsequently permeabilized on ice using 0.5% tween-20 in PBS for 20 min similarly as before (Smith et al., 2004). Cells were washed with PBS and blocked with 5% BSA in PBS for 10 min. Cells were incubated for 1 h at 37° C. with 2 μg/mL of primary antibody (anti-pERK1/2). Subsequently, cells were washed 3 times with 0.5% tween-20 in PBS for 5 min each and incubated with 2 μg/mL of Alexa Fluor 647 labeled secondary antibody in PB for 45 min. Following incubation with secondary antibody, cells were washed 3 times with 0.5% tween-20 in PBS. Cells were covered with mounting media DAPI (Vector Labs), mounted on slides, and imaged on a Zeiss LSM700 confocal microscope.

Assay [2] deals with N-cadherin, MMP-9, vimentin and E-cadherin. The assay is described as follows: EMT marker mRNA levels in PANC-1 cells, RT-PCR. As to conditions: 10 nM dermorphin, 100 ng/mL CXCL12. As for the experimental part:
RNA was isolated using the RNAeasy Plus Kit (Qiagen) according to the manufacturer's protocol. For the EMT markers assay, cells were first treated with appropriate agonists where indicated for 24 hours followed by cell lysis and RNA extraction. cDNA was synthesized from 2 μg RNA using Bioline cDNA synthesis kit according to the manufacturer's protocol. The synthesized cDNAs were used as templates for PCRs with primers as described below. RT-PCR was performed using 5×RT Mastermix (Applied Biosystems). The reactions were analyzed on the CFX96 Real time instrument (Biorad). Themocycler conditions were 95° C. for 10 min for 1 cycle, 95° C. for 15 sec and 60° C. for 1 min for 50 cycles. GAPDH was used as an internal control. For GPCR assays, COS-7 cells were used as negative and MCF-7 cells as positive controls. For EMT marker assays, fold change was calculated as a ratio of treated to untreated control.

For assay [3], the system named is EGFR. The assay is described as follows: EGFR phosphorylation in PANC-1 cells, Western blot kinetic study. As to conditions: 10 nM agonist(s), pEGFR over total EGFR. As for the experimental part:
To prepare protein extracts, cells were pelleted by centrifugation and washed twice in PBS. The pellet was resuspended in lysis buffer (50 mM Tris, pH 8.0, 150 mM sodium chloride, 1% NP-40, supplemented Protease and Phosphatase Inhibitor Mini Tablets, Pierce) and incubated on a rotator for 30 min at 4° C. Subsequently, the cells were pelleted by centrifugation at 10,000 rpm for 20 min at 4° C. The protein lysate (supernatant) was used immediately or stored at −80° C. Membrane proteins were isolated using the Mem-Per Plus Membrane protein isolation kit (Thermo Scientific) per the manufacturer′ instructions. Briefly, adherent cells were scraped and centrifuged for 5 min at 300×g. The cell pellet was washed 2 times using Cell Wash solution and centrifuged for 5 min at 300×g. The cell pellet was permeabilized using Permeabilization Buffer and incubated at 4° C. for 10 mins on a rotator. […] Proteins were detected with Pierce ECL detection reagents (Pierce). […]
Cells were treated with 10 nM Dermorphin [Y(D-ALA)FGYPKC; Genscript], 10 nM (1R,1′S,3′R/1R,1′R,3′S)-L-054,264 (Tocris) individually and in combination for the indicated times. […] Blots were imaged on film and quantified using the Image Lab software (Biorad). ERK1/2 and EGFR phosphorylation at each time point was quantified and normalized by calculating the ratio of pERK1/2 over total ERK1/2 and pEGFR over total EGFR in each lane. […]

Turning to CXCL12: selective CXCR4 agonist, the pERK1/2 localization result in assay [1] was “high levels of nuclear pERK1/2”. The “mRNA levels of 4 markers (N-cadherin, E-cadherin, MMP-9, vimentin)” value in assay [2] is “did not have a significant effect”. With (1R,1′S,3′R/1R,1′R,3′S)-L-054,264, the EGFR phosphorylation result in assay [3] is “induced modest EGFR phosphorylation”.
